Activity calls are given as the source filed them. The calls are words filed in the database; no cut-off is given here.
Columns and labels:
Mus musculus [1] = assay: Anticonvulsant activity in ip dosed albino mouse assessed as inhibition of maximal electric shock-induced seizures after 0.5 hrs; format: functional
Mus musculus [2] = assay: Anticonvulsant activity in ip dosed albino mouse assessed as inhibition of maximal electric shock-induced seizures after 4 hrs; format: functional
Mus musculus [3] = assay: Anticonvulsant activity in ip dosed albino mouse assessed as inhibition of subcutaneous pentylenetetrazole-induced seizure after 0.5 hrs; format: functional
Mus musculus [4] = assay: Neurotoxicity in ip dosed albino mouse assessed as minimal motor impairment after 0.5 hrs by rotarod test; format: toxicity, organism-based; settings: in vivo
Mus musculus [5] = assay: Neurotoxicity in ip dosed albino mouse assessed as minimal motor impairment after 4 hrs by rotarod test; format: toxicity, organism-based; settings: in vivo
Mus musculus [6] = assay: Behavioral activity in albino mouse assessed as decrease in locomotor activity at 100 mg/kg, ip by actophotometer; format: functional; settings: route intraperitoneal
Rattus norvegicus [7] = assay: Antidepressant activity in Wistar rat assessed as increase in immobility time at 100 mg/kg, ip after 60 min by forced swim pool method; format: functional; settings: route intraperitoneal
Mus musculus [8] = assay: Anticonvulsant activity in ip dosed albino mouse assessed as inhibition of subcutaneous pentylenetetrazole-induced seizure after 4 hrs; format: functional
Rattus norvegicus [9] = assay: Antidepressant activity against Wistar rat assessed as increase in immobility time at 30 mg/kg, ip after 60 mins by forced swim pool method; format: functional; settings: route intraperitoneal

Row | SMILES | Activity (Mus musculus [1]) | Activity (Mus musculus [2]) | Activity (Mus musculus [3]) | Activity (Mus musculus [4]) | Activity (Mus musculus [5]) | inhibition in vivo at 100 mg/kg (Mus musculus [6]) [%] | Time (Rattus norvegicus [7]) [s] | Activity (Mus musculus [8]) | Time (Rattus norvegicus [9]) [s]
1 | CCc1ccc(NC(=O)Nn2c(-c3ccccc3)nc3ccccc3c2=O)cc1 | inactive | inactive | inactive | Not Active | Not Active | 61 | 213.13 | inactive | –
2 | Cc1ccc(NC(=O)Nn2c(-c3ccccc3)nc3ccccc3c2=O)cc1 | inactive | inactive | inactive | 300 mg/kg | Not Active | 54 | 205.22 | inactive | –
3 | CCOc1ccc(NC(=O)Nn2c(CC)nc3ccccc3c2=O)cc1 | 300 mg/kg | inactive | inactive | 300 mg/kg | 300 mg/kg | 50 | 161.43 | inactive | –
4 | CCCC(CCC)C(=O)[O-].[Na+] [VALPROATE SODIUM] | 100 mg/kg | 30 mg/kg | 30 mg/kg | 100 mg/kg | 300 mg/kg | – | – | 300 mg/kg | –
5 | CCc1nc2ccccc2c(=O)n1NC(=O)Nc1ccc(I)cc1 | inactive | inactive | – | Not Active | Not Active | 55 | 274.4 | inactive | –
6 | O=C1NC(=O)C(c2ccccc2)(c2ccccc2)N1 [PHENYTOIN] | 30 mg/kg | 100 mg/kg | 100 mg/kg | 100 mg/kg | 300 mg/kg | 69 | – | 300 mg/kg | –
7 | NC(=O)N1c2ccccc2C=Cc2ccccc21 [CARBAMAZEPINE] | inactive | inactive | 300 mg/kg | Not Active | Not Active | – | – | inactive | 168.32
8 | CCC1(c2ccccc2)C(=O)NC(=O)NC1=O [PHENOBARBITAL] | inactive | inactive | 300 mg/kg | Not Active | Not Active | – | – | inactive | –
9 | CCc1nc2ccccc2c(=O)n1NC(=O)Nc1cccc(C)c1 | inactive | inactive | inactive | Not Active | Not Active | 53 | 165.63 | inactive | –
10 | Cc1ccccc1NC(=O)Nn1c(-c2ccccc2)nc2ccccc2c1=O | inactive | inactive | inactive | Not Active | Not Active | 59 | 162.13 | inactive | –
11 | COc1ccc(NC(=O)Nn2c(-c3ccccc3)nc3ccccc3c2=O)cc1 | inactive | inactive | 300 mg/kg | 300 mg/kg | Not Active | 52 | 229.15 | inactive | –
12 | CCc1nc2ccccc2c(=O)n1NC(=O)Nc1ccc(F)cc1 | inactive | inactive | inactive | Not Active | Not Active | 51 | 248.32 | inactive | –
13 | CCc1ccc(NC(=O)Nn2c(CC)nc3ccccc3c2=O)cc1 | inactive | inactive | inactive | Not Active | Not Active | 58 | 227.54 | inactive | –
14 | CCc1nc2ccccc2c(=O)n1NC(=O)Nc1ccc(OC)cc1 | inactive | inactive | inactive | 300 mg/kg | – | 48 | 141.17 | inactive | –

— ChEMBL document CHEMBL1155968, “Synthesis, anticonvulsant and CNS depressant activity of some new bioactive 1-(4-substituted-phenyl)-3-(4-oxo-2-phenyl/ethyl-4H-quinazolin-3-yl)-urea” (Eur J Med Chem, 2009)
